According to paper PMC4631615 (Bipolar disorders, 2015):
Several values for one entry are separate records, joined by “and”; a condition that tells them apart may be missing. Identical values can stand only once. Marks after values point to notes of the source that are not given here.

How the values were obtained:
[1] = tested on: pregnant SWV mice; assay: Maternal body weight and weight gain, teratogenicity study; assay type: in vivo, mouse; conditions: mean ± SD
[2] = tested on: SWV mouse fetuses; conditions: for Overall teratogenicity under the experimental conditions: SWV mice, p.o. GD 4–17, doses as fractions of LD50
[3] = tested on: mouse; conditions: source not given; cited from earlier work
[4] = tested on: pregnant SWV mice; assay: Pregnancy outcomes; assay type: in vivo, mouse
[5] = tested on: SWV mouse fetuses; assay: Skeletal examination of fetuses; assay type: in vivo
[6] = tested on: NMRI mice; conditions: injected on GD 8 with 3 mmol/kg; cited from earlier work
[7] = 1/6.54 of LD50 (RIS 9.6, OLA 32.1, VCD 152.8 mg/kg) p.o. GD 4–17
[8] = 1/13.1 of LD50 (OLA 16.05 mg/kg) p.o. GD 4–17
[9] = 1/6.54 of LD50 (RIS 9.6, OLA 32.1, VCD 152.8 mg/kg) p.o. GD 4–17, mean ± SD
[10] = 1/4.36 of LD50 (RIS 14.5, VCD 229.2 mg/kg) p.o. GD 4–17

Cc1cc2c(s1)Nc1ccccc1N=C2N1CCN(C)CC1 [OLA, 2-methyl-4-(4-methyl-1-piperazinyl)-10H-thieno(2,3-b)([1],[5])benzodiazepine]
Dams net weight gain [1, 7]: 5.6 ± 2.0 ^a grams | Dams weight GD 18 [1, 7]: 34.9 grams and 34.9 ± 4.0 ^a grams | Dams weight gain [1, 7]: 8.0 ± 3.5 ^a grams | Dams net weight gain [1, 8]: 8.8 ± 1.8 grams | Dams weight GD 18 [1, 8]: 46.5 ± 3.6 grams | Dams weight gain [1, 8]: 18.7 ± 3.8 grams | Overall teratogenicity under the experimental conditions [2]: the most teratogenic of the three test drugs | Dilated brain ventricles, affected litters ([2]; female, SWV, mouse, in vivo): 2/2 | Dilated renal pelvis, affected litters ([2]; female, SWV, mouse, in vivo): 2/2 | Exencephaly, affected fetuses ([2]; female, SWV, mouse, in vivo): 0 | Malposition stomach, affected fetuses ([2]; female, SWV, mouse, in vivo): 0 | Right aortic arch, affected fetuses ([2]; female, SWV, mouse, in vivo): 0 | LD50 mouse, oral [3]: 210 mg/kg | Fetus weight [4, 9]: 0.66 ± 0.09 ^a g | Resorptions/litter [4, 9]: 9.6 ± 3.9 ^a | Fetus weight ([4]; 1/13.1 of LD50 (OLA 16.05 mg/kg) p.o. GD 4–17, mean ± SD): 0.83 ± 0.10 ^a g | Embryos resorbed ([4]; 1/13.1 of LD50 (OLA 16.05 mg/kg, low dose) p.o. GD 4–17): 15% | All vertebra: incomplete ossification, affected fetuses [5, 7]: 3 | All vertebra: incomplete ossification, affected litters [5, 7]: 1 | Cervical vertebra: ossified fusion of centrums, affected fetuses [5, 7]: 0 | Fetuses with skeletal abnormalities, % [5, 7]: 79.2% | Fibula: bent, affected fetuses [5, 7]: 0 | Metacarpal: absent ossification, affected fetuses [5, 7]: 12 | Metacarpal: absent ossification, affected litters [5, 7]: 8 | Metacarpal: incomplete ossification, affected fetuses [5, 7]: 6 | Metacarpal: incomplete ossification, affected litters [5, 7]: 3 | Metatarsal: absent ossification, affected fetuses [5, 7]: 14 | Metatarsal: absent ossification, affected litters [5, 7]: 9 | Metatarsal: incomplete ossification, affected fetuses [5, 7]: 4 | Metatarsal: incomplete ossification, affected litters [5, 7]: 3 | Ribs: absent 13th, affected fetuses [5, 7]: 1/1 | Ribs: absent 13th, affected litters [5, 7]: 1/1 | Ribs: branched, affected fetuses [5, 7]: 0 | Skull: incomplete ossification, affected fetuses [5, 7]: 1/1 | Skull: incomplete ossification, affected litters [5, 7]: 1/1 | Skull: interparietal incomplete ossification, affected fetuses [5, 7]: 1/1 | Skull: interparietal incomplete ossification, affected litters [5, 7]: 1/1 | Skull: parietal incomplete ossification, affected fetuses [5, 7]: 0 | Skull: supraoccipital incomplete ossification, affected fetuses [5, 7]: 1/1 | Skull: supraoccipital incomplete ossification, affected litters [5, 7]: 1/1 | Sternebra: absent ossification, affected fetuses [5, 7]: 8 | Sternebra: absent ossification, affected litters [5, 7]: 5 | Sternebra: incomplete ossification, affected fetuses [5, 7]: 8 | Sternebra: incomplete ossification, affected litters [5, 7]: 7 | Sternebra: misaligned, affected fetuses [5, 7]: 0 | Sternebra: misshapen, affected fetuses [5, 7]: 0 | Whole skeletal system: incomplete ossification, affected fetuses [5, 7]: 7 | Whole skeletal system: incomplete ossification, affected litters [5, 7]: 3 | All vertebra: incomplete ossification, affected fetuses [5, 8]: 0 | Cervical vertebra: ossified fusion of centrums, affected fetuses [5, 8]: 0 | Fibula: bent, affected fetuses [5, 8]: 0 | Metacarpal: absent ossification, affected fetuses [5, 8]: 1/1 | Metacarpal: absent ossification, affected litters [5, 8]: 1/1 | Metacarpal: incomplete ossification, affected fetuses [5, 8]: 47 | Metacarpal: incomplete ossification, affected litters [5, 8]: 12 | Metatarsal: absent ossification, affected fetuses [5, 8]: 8/8 ^b | Metatarsal: absent ossification, affected litters [5, 8]: 8/8 ^b | Metatarsal: incomplete ossification, affected fetuses [5, 8]: 20 | Metatarsal: incomplete ossification, affected litters [5, 8]: 8 | Ribs: absent 13th, affected fetuses [5, 8]: 0 | Ribs: branched, affected fetuses [5, 8]: 0 | Skull: incomplete ossification, affected fetuses [5, 8]: 0 | Skull: interparietal incomplete ossification, affected fetuses [5, 8]: 4 | Skull: interparietal incomplete ossification, affected litters [5, 8]: 3 | Skull: parietal incomplete ossification, affected fetuses [5, 8]: 3 | Skull: parietal incomplete ossification, affected litters [5, 8]: 2 | Skull: supraoccipital incomplete ossification, affected fetuses [5, 8]: 1/1 | Skull: supraoccipital incomplete ossification, affected litters [5, 8]: 1/1 | Sternebra: absent ossification, affected fetuses [5, 8]: 4/4 | Sternebra: absent ossification, affected litters [5, 8]: 4/4 | Sternebra: incomplete ossification, affected fetuses [5, 8]: 25 | Sternebra: incomplete ossification, affected litters [5, 8]: 11 | Sternebra: misaligned, affected fetuses [5, 8]: 0 | Sternebra: misshapen, affected fetuses [5, 8]: 0 | Whole skeletal system: incomplete ossification, affected fetuses [5, 8]: 0

CCCC(CCC)C(=O)O [VPA, valproic acid]
Exposed fetuses with exencephaly [6]: 52% | Resorption rate [6]: 53%

Cc1nc2n(c(=O)c1CCN1CCC(c3noc4cc(F)ccc34)CC1)CCCC2 [RIS, 3-(2-(4-(6-fluoro-1,2-benzisoxazol-3-yl)piperidino)ethyl)-6,7,8,9-tetrahydro-2-methyl-4H-pyrido(1,2-a)pyrimidin-4-one]
Dams net weight gain [1, 10]: 7.4 ± 2.3 ^a grams | Dams weight GD 18 [1, 10]: 47.1 ± 3.2 grams | Dams weight gain [1, 10]: 18.1 grams and 18.1 ± 2.5 ^a grams | Dams net weight gain [1, 7]: 7.5 ± 2.0 grams | Dams weight GD 18 [1, 7]: 46.9 ± 4.8 grams | Dams weight gain [1, 7]: 19.4 ± 4.2 grams | Overall teratogenicity under the experimental conditions [2]: maternal-, embryo-, and fetotoxic | Cleft palate, affected fetuses ([2]; female, SWV, mouse, in vivo): 8 | Dilated brain ventricles, affected litters ([2]; female, SWV, mouse, in vivo): 2/2 | Exencephaly, affected litters ([2]; female, SWV, mouse, in vivo): 1/1 | Fetuses with external abnormalities, % ([2]; female, SWV, mouse, in vivo): 0.4% | Malposition stomach, affected fetuses ([2]; female, SWV, mouse, in vivo): 0 | Right aortic arch, affected fetuses ([2]; female, SWV, mouse, in vivo): 0 | LD50 mouse, oral [3]: 63 mg/kg | Resorption rate ([4]; 1/4.36 of LD50 (RIS 14.5 mg/kg) p.o. GD 4–17): 12.4% | Fetus weight ([4]; 1/4.36 of LD50 (RIS 14.5, VCD 229.2 mg/kg) p.o. GD 4–17, mean ± SD): 0.83 ± 0.05 ^a g | Fetus weight [4, 9]: 0.89 ± 0.06 g | All vertebra: incomplete ossification, affected fetuses [5, 10]: 0 | Cervical vertebra: ossified fusion of centrums, affected fetuses [5, 10]: 0 | Fetuses with skeletal abnormalities, % [5, 10]: 20.1% | Fibula: bent, affected fetuses [5, 10]: 0 | Metacarpal: absent ossification, affected fetuses [5, 10]: 6 | Metacarpal: absent ossification, affected litters [5, 10]: 1 | Metacarpal: incomplete ossification, affected fetuses [5, 10]: 0 | Metatarsal: absent ossification, affected fetuses [5, 10]: 6 | Metatarsal: absent ossification, affected litters [5, 10]: 1 | Metatarsal: incomplete ossification, affected fetuses [5, 10]: 0 | Ribs: absent 13th, affected fetuses [5, 10]: 0 | Ribs: branched, affected fetuses [5, 10]: 0 | Skull: incomplete ossification, affected fetuses [5, 10]: 6 | Skull: incomplete ossification, affected litters [5, 10]: 1 | Skull: interparietal incomplete ossification, affected fetuses [5, 10]: 0 | Skull: parietal incomplete ossification, affected fetuses [5, 10]: 1/1 | Skull: parietal incomplete ossification, affected litters [5, 10]: 1/1 | Skull: supraoccipital incomplete ossification, affected fetuses [5, 10]: 0 | Sternebra: absent ossification, affected fetuses [5, 10]: 7 | Sternebra: absent ossification, affected litters [5, 10]: 2 | Sternebra: incomplete ossification, affected fetuses [5, 10]: 13 | Sternebra: incomplete ossification, affected litters [5, 10]: 9 | Sternebra: misaligned, affected fetuses [5, 10]: 0 | Sternebra: misshapen, affected fetuses [5, 10]: 1/1 | Sternebra: misshapen, affected litters [5, 10]: 1/1 | Whole skeletal system: incomplete ossification, affected fetuses [5, 10]: 2 | Whole skeletal system: incomplete ossification, affected litters [5, 10]: 1 | All vertebra: incomplete ossification, affected fetuses [5, 7]: 0 | Cervical vertebra: ossified fusion of centrums, affected fetuses [5, 7]: 0 | Fetuses with skeletal abnormalities, % [5, 7]: 10.8% | Fibula: bent, affected fetuses [5, 7]: 0 | Metacarpal: absent ossification, affected fetuses [5, 7]: 0 | Metacarpal: incomplete ossification, affected fetuses [5, 7]: 1/1 | Metacarpal: incomplete ossification, affected litters [5, 7]: 1/1 | Metatarsal: absent ossification, affected fetuses [5, 7]: 0 | Metatarsal: incomplete ossification, affected fetuses [5, 7]: 1/1 | Metatarsal: incomplete ossification, affected litters [5, 7]: 1/1 | Ribs: absent 13th, affected fetuses [5, 7]: 0 | Ribs: branched, affected fetuses [5, 7]: 0 | Skull: incomplete ossification, affected fetuses [5, 7]: 3 | Skull: incomplete ossification, affected litters [5, 7]: 2 | Skull: interparietal incomplete ossification, affected fetuses [5, 7]: 0 | Skull: parietal incomplete ossification, affected fetuses [5, 7]: 0 | Skull: supraoccipital incomplete ossification, affected fetuses [5, 7]: 0 | Sternebra: absent ossification, affected fetuses [5, 7]: 0 | Sternebra: incomplete ossification, affected fetuses [5, 7]: 5 | Sternebra: incomplete ossification, affected litters [5, 7]: 4 | Sternebra: misaligned, affected fetuses [5, 7]: 0 | Sternebra: misshapen, affected fetuses [5, 7]: 3/3 | Sternebra: misshapen, affected litters [5, 7]: 3/3 | Whole skeletal system: incomplete ossification, affected fetuses [5, 7]: 1/1 | Whole skeletal system: incomplete ossification, affected litters [5, 7]: 1/1
